Reference: patent US10588317B2, “Isoxazoline-substituted benzamides and analogues as insecticides” (priority 2015, dated 2020)

Experiments:
Type in all cases: in vivo
[1] = tested on: Thrips tabaci; test: Thrips tabaci (onion thrips): feeding/contact activity; settings: 144 h, application rate 200 ppm, Thrips population of mixed ages, 6 days after infestation, read-out: mortality
Protocol: (§1) Sunflower leaf discs were placed on agar in 24-well microtiter plates and sprayed with aqueous test solutions prepared from 10'000 ppm DMSO stock solutions. After drying the leaf discs were infested with a Thrips population of mixed ages. The samples were assessed for mortality 6 days after infestation.

[2] = tested on: Euschistus heros; test: Euschistus heros (neotropical brown stink bug), sprayed soybean leaves; settings: 120 h, application rate 200 ppm, N2 nymphs, 5 days after infestation, read-out: effect in at least one of the two categories (mortality or growth inhibition)
How it was run: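 Soybean leaves on agar sprayed with aqueous dilutions of DMSO stocks, dried, then infested with N2 nymphs. Mortality and growth inhibition scored against untreated samples 5 days after infestation; application rate 200 ppm.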

[3] = tested on: Plutella xylostella; test: Plutella xylostella (diamond back moth), artificial diet; settings: 120 h, application rate 200 ppm, L2 larvae, 5 days after infestation, read-out: effect in at least one of the two categories (mortality or growth inhibition)
How it was run: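 Artificial diet in 24-well plates treated with aqueous test solutions made from 10'000 ppm DMSO stocks, dried, then infested with L2 larvae (10 to 15 per well). Mortality and growth inhibition scored against untreated samples 5 days after infestation; activity cut-off at least 80% in either category at 200 ppm.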

[4] = tested on: Diabrotica balteata; test: Diabrotica balteata (corn root worm), sprayed maize sprouts; settings: 96 h, application rate 200 ppm, L2 larvae, 4 days after infestation, read-out: effect in at least one of the two categories (mortality or growth inhibition)
How it was run: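 Maize sprouts on agar sprayed with aqueous dilutions of DMSO stocks, dried, then infested with L2 larvae (6–10 per well). Mortality and growth inhibition scored against untreated controls 4 days after infestation, at 200 ppm application rate.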

[5] = tested on: Myzus persicae; test: Myzus persicae (green peach aphid): feeding/contact activity; settings: 144 h, application rate 200 ppm, aphid population of mixed ages, 6 days after infestation, read-out: mortality
Protocol: Sunflower leaf discs were placed onto agar in a 24-well microtiter plate and sprayed with aqueous test solutions prepared from 10'000 ppm DMSO stock solutions. After drying, the leaf discs were infested with an aphid population of mixed ages. The samples were assessed for mortality 6 days after infestation.

[6] = tested on: Tetranychus urticae; test: Tetranychus urticae (two-spotted spider mite): feeding/contact activity; settings: 192 h, application rate 200 ppm, mixed population (mobile stages), 8 days after infestation, read-out: mortality
Protocol: as §1, with “Bean” for “Sunflower”, “discs” for “discs were placed”, “were” for “and”, “mite” for “Thrips”, “on mixed population (mobile stages) 8” for “6”

[7] = tested on: Spodoptera littoralis; test: Spodoptera littoralis (Egyptian cotton leaf worm), uptake by lettuce roots from agar; settings: 144 h, read-out: effect in at least one of the three categories (mortality, anti-feeding, or growth inhibition)
How it was run: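 Compound from 10'000 ppm DMSO stocks was mixed into agar, and lettuce grew on it for 7 days to take it up via roots. Cut leaves were infested with Spodoptera eggs; mortality, anti-feedant effect and growth inhibition scored 6 days later versus untreated samples.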

[8] = tested on: Spodoptera littoralis; test: Spodoptera littoralis (Egyptian cotton leaf worm), sprayed cotton leaf discs; settings: foliar, 72 h, application rate 200 ppm, L1 larvae, 3 days after infestation, read-out: control (mortality, anti-feeding effect, growth inhibition)
How it was run: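 Cotton leaf discs on agar sprayed with aqueous test solutions made from 10'000 ppm DMSO stock; after drying, infested with five L1 larvae. Mortality, anti-feeding and growth inhibition scored versus untreated samples 3 days after infestation; control counted when any category exceeds untreated.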

Cc1cc(C2=NO[C@@](c3cc(Cl)cc(Cl)c3)(C(F)(F)F)C2)ccc1C(=O)N[C@H]1CON(S(C)(=O)=O)C1 [Compound A38]
≥ 80%: mortality at 200 ppm [1] | percent effect (mortality or growth inhibition) at 200 ppm [2] | percent effect (mortality or growth inhibition) at 200 ppm [3] | percent effect (mortality or growth inhibition) at 200 ppm [4] | mortality at 200 ppm [5] | mortality at 200 ppm [6] | percent control (mortality, anti-feedant effect or growth inhibition) at 12.5 ppm [7] | mortality at 200 ppm [8]

CCS(=O)(=O)N1C[C@@H](NC(=O)c2ccc(C3=NO[C@@](c4cc(Cl)c(F)c(Cl)c4)(C(F)(F)F)C3)cc2Cl)CO1 [Compound A146]
≥ 80%: mortality at 200 ppm [1] | percent effect (mortality or growth inhibition) at 200 ppm [2] | percent effect (mortality or growth inhibition) at 200 ppm [3] | percent effect (mortality or growth inhibition) at 200 ppm [4] | mortality at 200 ppm [5] | mortality at 200 ppm [6] | percent control (mortality, anti-feedant effect or growth inhibition) at 12.5 ppm [7] | mortality at 200 ppm [8]

Cc1cc(C2=NOC(c3cc(Cl)cc(C(F)(F)F)c3)(C(F)(F)F)C2)ccc1C(=O)NC1CON(S(C)(=O)=O)C1 (stereo not shown) [Compound A62]
≥ 80%: mortality at 200 ppm [1] | percent effect (mortality or growth inhibition) at 200 ppm [2] | percent effect (mortality or growth inhibition) at 200 ppm [3] | percent effect (mortality or growth inhibition) at 200 ppm [4] | mortality at 200 ppm [5] | mortality at 200 ppm [6] | percent control (mortality, anti-feedant effect or growth inhibition) at 12.5 ppm [7] | mortality at 200 ppm [8]

Cc1cc(C2=NOC(c3cc(Cl)cc(Cl)c3)(C(F)(F)Cl)C2)ccc1C(=O)NC1CON(S(C)(=O)=O)C1 (stereo not shown) [Compound A64]
≥ 80%: mortality at 200 ppm [1] | percent effect (mortality or growth inhibition) at 200 ppm [2] | percent effect (mortality or growth inhibition) at 200 ppm [3] | percent effect (mortality or growth inhibition) at 200 ppm [4] | mortality at 200 ppm [5] | mortality at 200 ppm [6] | percent effect (mortality, anti-feeding or growth inhibition) at 12.5 ppm ([7]; test rate 12.5 ppm, eggs, 6 days after infestation) | mortality at 200 ppm [8]

CCS(=O)(=O)N1C[C@@H](NC(=O)c2ccc(C3=NO[C@@](c4cc(Cl)c(Cl)c(Cl)c4)(C(F)(F)F)C3)cc2Cl)CO1 [Compound A147, 2-chloro-N-[(4R)-2-ethylsulfonylisoxazolidin-4-yl]-4-[(5S)-5-(3,4,5-trichlorophenyl)-5-(trifluoromethyl)-4H-isoxazol-3-yl]benzamide]
≥ 80%: mortality at 200 ppm [1] | percent effect (mortality or growth inhibition) at 200 ppm [2] | percent effect (mortality or growth inhibition) at 200 ppm [3] | percent effect (mortality or growth inhibition) at 200 ppm [4] | mortality at 200 ppm [5] | mortality at 200 ppm [6] | percent control (mortality, anti-feedant effect or growth inhibition) at 12.5 ppm [7] | mortality at 200 ppm [8]

Cc1cc(C2=NO[C@@](c3cc(Cl)cc(Cl)c3)(C(F)(F)F)C2)ccc1C(=O)N[C@H]1CON(S(=O)(=O)N(C)C)C1 [Compound A39]
≥ 80%: mortality at 200 ppm [1] | percent effect (mortality or growth inhibition) at 200 ppm [2] | percent effect (mortality or growth inhibition) at 200 ppm [3] | percent effect (mortality or growth inhibition) at 200 ppm [4] | mortality at 200 ppm [5] | mortality at 200 ppm [6] | percent control (mortality, anti-feedant effect or growth inhibition) at 12.5 ppm [7] | mortality at 200 ppm [8]

CS(=O)(=O)N1CC(NC(=O)c2ccc(C3=NO[C@@](c4cc(Cl)c(F)c(Cl)c4)(C(F)(F)F)C3)cc2Cl)CO1 (stereo partly drawn) [Compound A19, 2-chloro-4-[(5S)-5-(3,5-dichloro-4-fluoro-phenyl)-5-(trifluoromethyl)-4H-isoxazol-3-yl]-N-(2-methylsulfonylisoxazolidin-4-yl)benzamide]
≥ 80%: mortality at 200 ppm [1] | percent effect (mortality or growth inhibition) at 200 ppm [2] | percent effect (mortality or growth inhibition) at 200 ppm [3] | percent effect (mortality or growth inhibition) at 200 ppm [4] | mortality at 200 ppm [5] | mortality at 200 ppm [6] | percent control (mortality, anti-feedant effect or growth inhibition) at 12.5 ppm [7] | mortality at 200 ppm [8]

Cc1cc(C2=NO[C@@](c3cc(Cl)c(F)c(Cl)c3)(C(F)(F)F)C2)ccc1C(=O)NC1CON(S(=O)(=O)CCl)C1 (stereo partly drawn) [Compound A5, N-[2-(chloromethylsulfonyl)isoxazolidin-4-yl]-4-[(5S)-5-(3,5-dichloro-4-fluoro-phenyl)-5-(trifluoromethyl)-4H-isoxazol-3-yl]-2-methyl-benzamide]
≥ 80%: mortality at 200 ppm [1] | percent effect (mortality or growth inhibition) at 200 ppm [2] | percent effect (mortality or growth inhibition) at 200 ppm [3] | percent effect (mortality or growth inhibition) at 200 ppm [4] | mortality at 200 ppm [5] | mortality at 200 ppm [6] | percent control (mortality, anti-feedant effect or growth inhibition) at 12.5 ppm [7] | mortality at 200 ppm [8]

C=CCN(C)S(=O)(=O)N1CC(NC(=O)c2ccc(C3=NO[C@@](c4cc(Cl)c(Cl)c(Cl)c4)(C(F)(F)F)C3)cc2C)CO1 (stereo partly drawn) [Compound A82, N-[2-[allyl(methyl)sulfamoyl]isoxazolidin-4-yl]-2-methyl-4-[(5S)-5-(3,4,5-trichlorophenyl)-5-(trifluoromethyl)-4H-isoxazol-3-yl]benzamide]
≥ 80%: mortality at 200 ppm [1] | percent effect (mortality or growth inhibition) at 200 ppm [2] | percent effect (mortality or growth inhibition) at 200 ppm [3] | percent effect (mortality or growth inhibition) at 200 ppm [4] | mortality at 200 ppm [5] | mortality at 200 ppm [6] | percent control (mortality, anti-feedant effect or growth inhibition) at 12.5 ppm [7] | mortality at 200 ppm [8]

Cc1cc(C2=NO[C@@](c3cc(Cl)c(Cl)c(Cl)c3)(C(F)(F)F)C2)ccc1C(=O)NC1CON(S(=O)(=O)N(C)CC#N)C1 (stereo partly drawn) [Compound A87, N-[2-[cyanomethyl(methyl)sulfamoyl]isoxazolidin-4-yl]-2-methyl-4-[(5S)-5-(3,4,5-trichlorophenyl)-5-(trifluoromethyl)-4H-isoxazol-3-yl]benzamide]
≥ 80%: mortality at 200 ppm [1] | percent effect (mortality or growth inhibition) at 200 ppm [2] | percent effect (mortality or growth inhibition) at 200 ppm [3] | percent effect (mortality or growth inhibition) at 200 ppm [4] | mortality at 200 ppm [5] | mortality at 200 ppm [6] | percent control (mortality, anti-feedant effect or growth inhibition) at 12.5 ppm [7] | mortality at 200 ppm [8]

CCS(=O)(=O)N1C[C@@H](NC(=O)c2ccc(C3=NO[C@@](c4cc(Cl)c(F)c(Cl)c4)(C(F)(F)F)C3)cc2C)CO1 [Compound A119]
≥ 80%: mortality at 200 ppm [1] | percent effect (mortality or growth inhibition) at 200 ppm [2] | percent effect (mortality or growth inhibition) at 200 ppm [3] | percent effect (mortality or growth inhibition) at 200 ppm [4] | mortality at 200 ppm [5] | mortality at 200 ppm [6] | percent control (mortality, anti-feedant effect or growth inhibition) at 12.5 ppm [7] | mortality at 200 ppm [8]

Cc1cc(C2=NO[C@@](c3cc(Cl)c(F)c(Cl)c3)(C(F)(F)F)C2)ccc1C(=O)NC1CON(S(=O)(=O)C2CC2)C1 (stereo partly shown) [Compound A6]
≥ 80%: mortality at 200 ppm [1] | percent effect (mortality or growth inhibition) at 200 ppm [2] | percent effect (mortality or growth inhibition) at 200 ppm [3] | percent effect (mortality or growth inhibition) at 200 ppm [4] | mortality at 200 ppm [5] | mortality at 200 ppm [6] | percent control (mortality, anti-feedant effect or growth inhibition) at 12.5 ppm [7] | mortality at 200 ppm [8]

CCN(C)S(=O)(=O)N1CC(NC(=O)c2ccc(C3=NO[C@@](c4cc(Cl)c(Cl)c(Cl)c4)(C(F)(F)F)C3)cc2C)CO1 (stereo partly drawn) [Compound A73, N-[2-[ethyl(methyl)sulfamoyl]isoxazolidin-4-yl]-2-methyl-4-[(5S)-5-(3,4,5-trichlorophenyl)-5-(trifluoromethyl)-4H-isoxazol-3-yl]benzamide]
≥ 80%: mortality at 200 ppm [1] | percent effect (mortality or growth inhibition) at 200 ppm [2] | percent effect (mortality or growth inhibition) at 200 ppm [3] | percent effect (mortality or growth inhibition) at 200 ppm [4] | mortality at 200 ppm [5] | mortality at 200 ppm [6] | percent control (mortality, anti-feedant effect or growth inhibition) at 12.5 ppm [7] | mortality at 200 ppm [8]

C=CCNS(=O)(=O)N1CC(NC(=O)c2ccc(C3=NO[C@@](c4cc(Cl)c(F)c(Cl)c4)(C(F)(F)F)C3)cc2C)CO1 (stereo partly shown) [Compound A105]
≥ 80%: mortality at 200 ppm [1] | percent effect (mortality or growth inhibition) at 200 ppm [2] | percent effect (mortality or growth inhibition) at 200 ppm [3] | percent effect (mortality or growth inhibition) at 200 ppm [4] | mortality at 200 ppm [5] | mortality at 200 ppm [6] | percent control (mortality, anti-feedant effect or growth inhibition) at 12.5 ppm [7] | mortality at 200 ppm [8]
